# Laboratory results as given in patent publication US12702675B2, “Tetrahydrococannabinolic acid cocrystals” (Manoira Corporation, priority 2020, dated 2026).
# Tests used:
# [1] = Solid-state stability study, ambient conditions in clear glass vial for 6 months; type: physicochemical
# [2] = Solid-state stability study, accelerated conditions (40° C. and 75% relative humidity, 14 days); type: physicochemical; details: 40° C./75% RH, 2 weeks, sealed container
# Procedure: A study was carried out to examine the physical stability of the tetrahydrocannabinolic acid cocrystals with respect to solid form conversion or signs of decomposition over time under both ambient and accelerated conditions.
substance,measurement,setting,value
1:1 tetrahydrocannabinolic acid ethyl maltol cocrystal [1:1 THCA ETHYL MALTOL],Appearance,[1]; 50 mg solid,No change
same,XRPD analysis,[1]; form change by XRPD,No change
same,Appearance,[2]; 50 mg solid,No change
same,XRPD analysis,[2]; form change by XRPD,slight signs of dissociation
